Data as given in US20040072206A1, “Method for identifying modulators of transcription” (priority 2000, published 2004).
Positions of bridges follow the written chain, without caps; N, C: chain ends. Non-standard residues stand in square brackets, D forms with d. Residues, ends and D or L forms follow the SMILES beside them. *: point of attachment. Ileψ(thiazoline)Cys = CC[C@H](C)[C@H](N)C1=N[C@H](C(=O)*)CS1; dOrn = NCCC[C@@H](N)C(=O)O

Key:
B. subtilis RNAP = biological target: T1, B. subtilis RNAP (Bacillus subtilis, UniProt P37870+P37871); assay: Dual reporter assay in strain PL37: test reporter Pxyl-lacZ and ratio of control to test reporter (RES:MUG); type: cell-based; conditions: for Ratio of the control reporter (RES): test reporter (MUG): strain PL37, DMSO control […]
T1 construct: endogenous in cells; host or cells: Bacillus subtilis strain PL37 (built from strain 168)
T1 sequence (P37871 whole entry): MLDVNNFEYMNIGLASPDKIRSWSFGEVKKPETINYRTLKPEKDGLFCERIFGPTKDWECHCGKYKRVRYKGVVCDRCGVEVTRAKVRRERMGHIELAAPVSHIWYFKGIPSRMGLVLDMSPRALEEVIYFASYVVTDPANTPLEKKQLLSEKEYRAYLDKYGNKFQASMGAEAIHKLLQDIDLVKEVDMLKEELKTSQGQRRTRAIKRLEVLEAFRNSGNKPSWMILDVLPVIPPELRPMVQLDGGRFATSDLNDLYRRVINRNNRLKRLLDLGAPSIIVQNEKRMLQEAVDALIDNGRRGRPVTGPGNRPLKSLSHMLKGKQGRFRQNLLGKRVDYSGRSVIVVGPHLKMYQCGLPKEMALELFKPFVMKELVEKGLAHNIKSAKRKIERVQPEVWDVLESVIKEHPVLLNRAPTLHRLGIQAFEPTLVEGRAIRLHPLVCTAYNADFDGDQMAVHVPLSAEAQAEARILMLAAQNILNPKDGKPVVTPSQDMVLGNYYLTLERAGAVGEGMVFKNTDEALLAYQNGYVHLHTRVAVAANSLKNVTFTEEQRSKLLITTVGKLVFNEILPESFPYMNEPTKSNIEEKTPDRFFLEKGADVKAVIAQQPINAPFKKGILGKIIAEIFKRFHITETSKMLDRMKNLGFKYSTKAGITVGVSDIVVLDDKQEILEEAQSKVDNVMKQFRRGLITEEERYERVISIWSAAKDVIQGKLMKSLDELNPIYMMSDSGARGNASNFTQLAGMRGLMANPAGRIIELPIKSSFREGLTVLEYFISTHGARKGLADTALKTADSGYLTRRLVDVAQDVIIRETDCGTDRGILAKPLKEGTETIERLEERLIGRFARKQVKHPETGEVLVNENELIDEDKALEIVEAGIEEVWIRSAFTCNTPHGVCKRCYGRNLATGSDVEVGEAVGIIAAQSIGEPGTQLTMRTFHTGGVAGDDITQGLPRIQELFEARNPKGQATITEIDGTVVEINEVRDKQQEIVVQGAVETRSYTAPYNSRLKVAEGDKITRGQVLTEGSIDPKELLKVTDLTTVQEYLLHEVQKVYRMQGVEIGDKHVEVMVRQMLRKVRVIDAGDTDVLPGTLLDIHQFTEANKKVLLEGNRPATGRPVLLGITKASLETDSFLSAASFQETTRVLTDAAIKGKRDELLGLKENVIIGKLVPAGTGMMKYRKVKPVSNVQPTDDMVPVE
T1 sequence (P20429 whole entry, further chain): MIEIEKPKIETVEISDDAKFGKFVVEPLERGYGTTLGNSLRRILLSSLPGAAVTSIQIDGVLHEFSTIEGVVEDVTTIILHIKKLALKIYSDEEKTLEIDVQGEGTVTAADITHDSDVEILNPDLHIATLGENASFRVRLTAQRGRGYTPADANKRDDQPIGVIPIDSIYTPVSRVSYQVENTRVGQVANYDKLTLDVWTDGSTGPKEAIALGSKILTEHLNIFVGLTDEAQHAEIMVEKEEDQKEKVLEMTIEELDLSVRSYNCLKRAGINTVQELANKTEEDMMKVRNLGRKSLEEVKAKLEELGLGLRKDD
T1 sequence (O35011 whole entry, further chain): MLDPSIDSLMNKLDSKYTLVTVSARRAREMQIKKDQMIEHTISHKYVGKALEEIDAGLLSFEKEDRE
T1 sequence (P37870 whole entry): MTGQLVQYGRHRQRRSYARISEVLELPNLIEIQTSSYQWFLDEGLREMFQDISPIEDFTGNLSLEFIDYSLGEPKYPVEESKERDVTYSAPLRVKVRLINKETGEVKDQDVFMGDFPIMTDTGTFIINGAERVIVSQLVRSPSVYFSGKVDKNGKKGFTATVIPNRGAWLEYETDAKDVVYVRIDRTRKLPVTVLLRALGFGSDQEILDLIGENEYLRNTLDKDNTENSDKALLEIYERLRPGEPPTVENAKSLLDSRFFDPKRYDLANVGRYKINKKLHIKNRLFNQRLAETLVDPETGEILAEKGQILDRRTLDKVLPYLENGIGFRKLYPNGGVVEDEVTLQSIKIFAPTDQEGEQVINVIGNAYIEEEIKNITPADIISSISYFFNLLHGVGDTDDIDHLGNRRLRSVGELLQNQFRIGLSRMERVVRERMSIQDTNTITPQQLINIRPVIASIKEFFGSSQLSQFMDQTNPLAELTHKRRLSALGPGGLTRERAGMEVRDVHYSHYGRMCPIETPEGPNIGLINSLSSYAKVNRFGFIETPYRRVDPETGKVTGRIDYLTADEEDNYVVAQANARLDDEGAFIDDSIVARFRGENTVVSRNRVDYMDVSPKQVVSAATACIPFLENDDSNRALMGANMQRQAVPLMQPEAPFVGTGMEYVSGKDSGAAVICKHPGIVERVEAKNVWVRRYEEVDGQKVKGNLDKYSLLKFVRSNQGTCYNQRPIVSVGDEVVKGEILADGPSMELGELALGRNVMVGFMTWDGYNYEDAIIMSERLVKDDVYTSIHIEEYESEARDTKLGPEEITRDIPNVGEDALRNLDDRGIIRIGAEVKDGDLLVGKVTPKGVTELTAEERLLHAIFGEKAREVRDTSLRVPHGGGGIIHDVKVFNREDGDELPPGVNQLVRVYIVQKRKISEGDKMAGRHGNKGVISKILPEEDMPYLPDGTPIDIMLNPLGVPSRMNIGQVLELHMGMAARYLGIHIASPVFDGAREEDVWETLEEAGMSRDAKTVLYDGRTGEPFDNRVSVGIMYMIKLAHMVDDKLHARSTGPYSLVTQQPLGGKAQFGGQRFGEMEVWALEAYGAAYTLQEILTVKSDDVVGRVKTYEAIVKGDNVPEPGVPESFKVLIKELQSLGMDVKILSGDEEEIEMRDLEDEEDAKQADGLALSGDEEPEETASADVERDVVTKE
Description: (§1) 20 known antibiotics were tested at a range of concentrations to determine their effect on test and control reporters within the assay. […] Cultures of PL37 grown in PAB, were diluted to 0.05 A600 and then grown for 2 hours at 37° C. in PAB supplemented with 0.02 mM IPTG. Cells were pelleted and frozen. They were later resuspended and diluted in PAB supplemented with 0.02 mM IPTG and grown at 37° C. to early exponential phase. Cultures were then diluted to 0.05 A600 in PAB and added in 20 μl volumes to wells of microtitre plates containing 20 μl volumes of the antibiotics. Plates were incubated at 37° C. for two hours, and assay mix was added to detect reporter enzyme activity (see below).
(§2) Following the addition of 160 μl of assay mix (1.3×Z buffer containing 94 μg/ml lysozyme, 8.4 μg/ml 4-methylumbelliferyl-β-D-galactoside, 0.53 μg/ml resorufin-β-D-glucuronide and 0.05% Triton) to each well, the microtitre plate was incubated in the dark for 30 mini or 1 hour at room temperature. Fluorescence was read on a BMG FLUOstar Galaxy at excitation/emission 355/460 nm and 544/590 nm, respectively, with gains set at 5 and 25, respectively.

bacterial RNA polymerase = biological target: T2, bacterial RNA polymerase (Bacillus subtilis, UniProt P37870+P37871); assay: Dual reporter assay in strain X (xylose-induced lacZ and T7 RNAP-driven gus reporters); type: cell-based; conditions: 30 min incubation
T2 construct: endogenous in cells; host or cells: Bacillus subtilis strain X (derivative of strain 168)
T2 sequence (O35011 whole entry): as the sequence (O35011 whole entry, further chain) above
T2 sequence (P20429 whole entry, further chain): as the sequence (P20429 whole entry, further chain) above
T2 sequence (P37870 whole entry): as the sequence (P37870 whole entry) above
T2 sequence (P37871 whole entry): as the sequence (P37871 whole entry) above
From the text: The strain X is a derivative of the standard laboratory strain of Bacillus subtilis 168. It has been modified in three ways.
1. It carries a xylose-inducible promoter driving transcription of the well known reporter gene lacZ, encoding the enzyme β-galactosidase. The reporter gene is silent or expressed at low levels in the absence of xylose because the endogenous XylR protein binds to the promoter region, reducing the ability of RNAP to initiate transcription. On addition of xylose or similar sugar, the repressor leaves the promoter allowing RNAP to transcribe the gene strongly, resulting in increased synthesis of β-galactosidase. A simple colourigenic substrate, ONPG was used to detect the formation of the enzyme.
2. Strain X also carries a second reporter gene comprising a promoter recognised by the RNAP of bacteriophage T7. This promoter has been modified so as to be recognised and repressed by the same XylR repressor as controls the first reporter. Consequently, the promoter cannot be utilised by T7 RNAP unless xylose is present. […]
The assay was done by growing a culture of strain X in the absence of xylose and then dispensing aliquots of culture into the wells of a microtitre plate. […] The plate was incubated for 30 min to allow accumulation of the two reporter enzymes, then the cells were lysed and the two enzyme activities were measured.

T7 RNAP = biological target: T3, T7 RNAP (Escherichia phage T7, UniProt P00573); assay: Dual reporter assay in strain PL37: control reporter PT7X-gus; type: cell-based, bacteriophage T7; conditions: strain PL37, FIG. 5
T3 construct: expressed in transfected cells; host or cells: Bacillus subtilis PL37, with Pspac-rpoT7 integrated in the chromosome and induced by IPTG
T3 sequence (P00573 whole entry): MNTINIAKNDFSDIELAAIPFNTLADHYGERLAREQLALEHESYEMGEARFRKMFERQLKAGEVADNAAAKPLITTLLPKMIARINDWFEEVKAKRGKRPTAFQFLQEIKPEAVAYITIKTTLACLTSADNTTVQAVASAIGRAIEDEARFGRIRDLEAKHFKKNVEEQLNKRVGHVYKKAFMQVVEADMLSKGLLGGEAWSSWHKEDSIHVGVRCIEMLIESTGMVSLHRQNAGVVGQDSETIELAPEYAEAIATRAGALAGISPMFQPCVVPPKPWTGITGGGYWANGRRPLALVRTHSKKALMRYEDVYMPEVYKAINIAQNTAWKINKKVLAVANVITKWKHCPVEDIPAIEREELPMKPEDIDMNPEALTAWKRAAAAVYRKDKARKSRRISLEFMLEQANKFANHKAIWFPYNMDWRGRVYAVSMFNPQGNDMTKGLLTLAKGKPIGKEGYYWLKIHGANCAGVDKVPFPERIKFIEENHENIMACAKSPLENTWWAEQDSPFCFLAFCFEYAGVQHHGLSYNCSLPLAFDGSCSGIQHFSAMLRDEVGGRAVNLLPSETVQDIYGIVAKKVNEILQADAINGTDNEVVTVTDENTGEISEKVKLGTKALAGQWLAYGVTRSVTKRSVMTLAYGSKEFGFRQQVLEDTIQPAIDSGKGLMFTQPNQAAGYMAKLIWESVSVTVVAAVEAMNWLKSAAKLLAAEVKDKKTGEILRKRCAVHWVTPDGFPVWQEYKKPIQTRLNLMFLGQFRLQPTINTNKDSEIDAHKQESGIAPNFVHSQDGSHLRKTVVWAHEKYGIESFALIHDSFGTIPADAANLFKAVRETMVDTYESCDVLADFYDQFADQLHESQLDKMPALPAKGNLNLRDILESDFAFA
Description: as §1, §2

[1] = Dilution Number 1 (highest concentration tested: 128, 16 or 0.5 μg/ml depending on antibiotic)
[2] = Dilution Number 11 (lowest concentration tested: 0.125, 0.016 or 0.0005 μg/ml depending on antibiotic)

Compound	Expression of the test reporter, xyl-lacZ (B. subtilis RNAP; strain PL37, FIG. 6)	RES:MUG ratio compared with the no antibiotic control (DMSO) (B. subtilis RNAP; strain PL37, Table 2, FIG. 7)	Detection as specific inhibitor of RNA polymerase (B. subtilis RNAP; strain PL37, antibiotic panel)	Ratio of the control reporter (RES): test reporter (MUG) (B. subtilis RNAP; [1])	Ratio of the control reporter (RES): test reporter (MUG) (B. subtilis RNAP; Dilution Number 2)	Ratio of the control reporter (RES): test reporter (MUG) (B. subtilis RNAP; Dilution Number 3)	Ratio of the control reporter (RES): test reporter (MUG) (B. subtilis RNAP; Dilution Number 4)	Ratio of the control reporter (RES): test reporter (MUG) (B. subtilis RNAP; Dilution Number 5)	Ratio of the control reporter (RES): test reporter (MUG) (B. subtilis RNAP; Dilution Number 6)	Ratio of the control reporter (RES): test reporter (MUG) (B. subtilis RNAP; Dilution Number 7)	Ratio of the control reporter (RES): test reporter (MUG) (B. subtilis RNAP; Dilution Number 8)	Ratio of the control reporter (RES): test reporter (MUG) (B. subtilis RNAP; Dilution Number 9)	Ratio of the control reporter (RES): test reporter (MUG) (B. subtilis RNAP; Dilution Number 10)	Ratio of the control reporter (RES): test reporter (MUG) (B. subtilis RNAP; [2])	Reporter enzyme activities (β-galactosidase and β-glucuronidase) (bacterial RNA polymerase)	Expression of the T7 RNAP-dependent control reporter (T7 RNAP)
CNC(=O)[C@@H](C)[C@H]1C(=O)/C(=C(O)/C=C/C(C)=C/[C@@H](C)[C@H]2O[C@@]3(C)O[C@H](C=C[C@@]34CO4)[C@@H]2C)C(=O)N1[C@@H]1CC[C@H](O)[C@H](C)O1 [Streptolydigin]	reduced drastically	greater than that of the no antibiotic control (DMSO) at several concentrations	detected as specific inhibitors of RNA polymerase	16.44	16.68	14.07	10.22	4.88	2.53	1.74	1.41	1.27	1.23	1.16	only the reporter enzyme driven by the T7 RNAP (β-glucuronidase) was active	increased
CC[C@H](C)[C@H](N)C1=N[C@H](C(=O)N[C@@H](CC(C)C)C(=O)N[C@H](CCC(=O)O)C(=O)N[C@H](C(=O)N[C@H]2CCCCNC(=O)[C@H](CC(N)=O)NC(=O)[C@@H](CC(=O)O)NC(=O)[C@H](Cc3cnc[nH]3)NC(=O)[C@@H](Cc3ccccc3)NC(=O)[C@H]([C@@H](C)CC)NC(=O)[C@@H](CCCN)NC2=O)[C@@H](C)CC)CS1 [Bacitracin] ({Ileψ(thiazoline)Cys}-L[dE]IK[dOrn]I[dF]H[dD]N; lactam 4-C)	–	–	–	1.32	1.15	1.12	1.11	1.14	1.13	1.09	1.09	1.09	1.12	1.13	–	–
CCC[C@@H]1C[C@@H](C(=O)N[C@@H]([C@H]2O[C@H](SC)[C@H](O)[C@@H](O)[C@H]2O)[C@@H](C)O)N(C)C1 [Lincomycin]	–	–	–	1.09	1.20	1.29	1.61	1.91	1.40	1.08	0.99	1.02	1.03	1.08	–	–
